# Values quoted from earlier work, collected in article PMC11020070, “Discovery of Protease-Activated Receptor 4 (PAR4)-Tethered Ligand Antagonists Using Ultralarge Virtual Screening” (ACS Pharmacology & Translational Science, 2024).
# Key:
# PAR4 [1] = test system: PAR4; set-up: method as in PMID 28053157; conditions: cited from earlier work
# [2] = set-up: method as in PMID 35758258, PMID 23222541; conditions: phase I, healthy participants; cited from earlier work
# PAR4 [3] = test system: PAR4; set-up: method as in PMID 27777004; conditions: read-out: IC50 against γ-thrombin; cited from earlier work
# PAR1 = target: T1, PAR1 (Homo sapiens, UniProt P25116); set-up: method as in PMID 22443427, PMID 22077816; conditions: cited from earlier work
# T1 construct: endogenous in cells; host or cells: platelets
# T1 sequence (P25116 22-425): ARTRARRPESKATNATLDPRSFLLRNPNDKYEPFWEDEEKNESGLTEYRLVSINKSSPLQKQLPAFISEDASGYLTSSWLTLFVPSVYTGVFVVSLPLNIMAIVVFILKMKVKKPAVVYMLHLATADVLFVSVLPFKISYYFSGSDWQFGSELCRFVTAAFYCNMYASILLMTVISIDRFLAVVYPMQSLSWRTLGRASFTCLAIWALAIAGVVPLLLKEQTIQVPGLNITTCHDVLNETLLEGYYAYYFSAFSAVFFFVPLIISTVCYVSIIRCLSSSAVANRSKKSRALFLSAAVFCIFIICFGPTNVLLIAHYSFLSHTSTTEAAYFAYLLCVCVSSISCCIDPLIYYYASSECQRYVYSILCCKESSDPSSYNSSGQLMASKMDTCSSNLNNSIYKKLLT
compound,measurement,setting,value
COc1cc(OCc2nc(N3CCOCC3)sc2C)c2cc(-c3cn4nc(OC)sc4n3)oc2c1 [BMS-986120],antithrombotic activity,PAR4 [1]; cynomolgus monkey arterial thrombosis model,potent and highly efficacious antithrombotic activity
same,bleeding liability,PAR4 [1]; nonhuman primate model,low bleeding liability
same,safety and tolerability,[2],safe and well tolerated
COc1nn2cc(-c3c(CO)n(Cc4ccccc4Cl)c4ccc(OC(F)(F)F)cc34)nc2s1 [Compound 6],IC50,PAR4 [3],4.35 µM
CCOC(=O)N[C@@H]1CC[C@@H]2[C@@H](C1)C[C@H]1C(=O)O[C@H](C)[C@H]1[C@H]2/C=C/c1ccc(-c2cccc(F)c2)cn1 [vorapaxar],primary efficacy outcome,"PAR1; added to standard care, acute coronary syndrome, phase 3",failed to meet its primary efficacy outcome
same,bleeding,"PAR1; phase 3, especially intracranial hemorrhage",excess of major bleeding
